For test [1], the target named is T1, Erk1 (Homo sapiens, UniProt P27361).
T1 construct: purchased Millipore 14-439
Kind of test: Protein Mass Modification Assay (intact protein MALDI, 60 min, 10-fold excess of compound). The format is binding. How it is done:
Protein Mass Modification Assay
Intact protein: Erk1 from Millipore (Cat. No. 14-439) was incubated for 60 min. at room temperature with a 10-fold excess of test compound to protein. 4 μL aliquots of the resulting mixture were diluted with 15 μL of 0.2% TFA prior to micro C4 ZipTipping directly onto the MALDI target using sinapinic acid as the desorption matrix (10 mg/ml in 0.1% TFA:Acetonitrile 50:50, v/v). The centroid mass of the target protein in the control sample was compared with the centroid mass of the target protein incubated with compound. A shift in the centroid mass of the treated protein compared to the untreated protein was divided by the molecular weight of the compound. This number corresponds to the percentage of modified protein after one hour incubation. Results from this assay are reported in Table A under the column “ERK1 Mass Mod (%).”

Test [2] deals with T2, MEK1 activated ERK1 (Homo sapiens, UniProt P27361).
T2 construct: purchased Millipore (Billerica, Mass.) 14-439-K
The test can be described thus: Omnia continuous-read kinase assay for potency against MEK1 activated ERK1. The format is biochemical. The settings on record: MEK1 activated ERK1, ATP at KM; read-out: ERK1 Omnia WT ATP KM IC50. In outline:
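Apparent IC50 came from initial reaction slopes (RFU vs time) plotted against log inhibitor with a variable-slope fit. Reactions were started with ERK1 (4 nM final) added to 50 μM ATP, roughly at its appKM, and 10 μM Sox-conjugated ST17 peptide in 20 mM Tris pH 7.5, 5 mM MgCl2. Fluorescence was monitored every 71 seconds.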

Test [3] relates to ERK1/2 phosphorylation of p90RSK in HT29 cells. Kind of test: pRSK MSD Assay in HT29 cells. The format is cell-based. The settings on record: Homo sapiens, HT-29, read-out: ERK1/ERK2 PRSK MSD HT29 EC50. Put shortly: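 Serum-starved HT29 cells (0.1% FBS overnight) treated with test compound for 120 min at 37° C, then lysed with protease and phosphatase inhibitors. Phospho-p90RSK quantified by MSD sandwich immunoassay: RSK capture antibody, phospho-RSK detection antibody plus Sulfo-tagged antibody, electrochemiluminescence read.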

The subject of test [4] is HT-29 cells (colorectal adenocarcinoma). Kind of test: Inhibition of cancer cell proliferation, HT-29 (CellTiterGlo, 72 hours). In kind it is cell-based. The settings on record: Homo sapiens. Put shortly: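 HT-29 cells seeded at 3000/well, then treated with 3-fold serial dilutions from a 5,000 nM two-fold solution in serum-free RPMI1640, untreated wells as control, for 72 h at 37° C. CellTiterGlo luminescence converted to cell number via a standard curve; GI50 from percent inhibition versus untreated growth.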

Structures are written as SMILES.

T2 sequence (P27361 whole entry): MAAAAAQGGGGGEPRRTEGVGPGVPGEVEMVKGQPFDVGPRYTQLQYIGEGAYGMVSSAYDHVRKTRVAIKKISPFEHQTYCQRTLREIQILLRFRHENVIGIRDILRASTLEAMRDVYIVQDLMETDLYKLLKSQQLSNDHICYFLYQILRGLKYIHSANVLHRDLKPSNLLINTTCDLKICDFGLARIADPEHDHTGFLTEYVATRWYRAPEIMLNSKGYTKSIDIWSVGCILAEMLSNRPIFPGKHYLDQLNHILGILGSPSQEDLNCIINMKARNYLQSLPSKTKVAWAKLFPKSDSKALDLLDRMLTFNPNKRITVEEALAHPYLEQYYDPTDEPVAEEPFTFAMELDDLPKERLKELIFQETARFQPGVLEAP
T1 sequence (P27361 whole entry): as above

As to `C#CCOc1cc(C)c(Nc2ncc(Cl)c(Nc3ccccc3NC(=O)C=C)n2)cc1C(N)=O` [Compound I-228, 5-((4-((2-acrylamidophenyl)amino)-5-chloropyrimidin-2-yl)amino)-4-methyl-2-(prop-2-yn-1-yloxy)benzamide], the “ERK1 Mass Mod (%)” value in test [1] is “E (a mass modification of ≧70%)”. Also, the IC50 (as a rule, the concentration that gives 50% inhibition) in test [2] was 101 to 500 nM. In addition, the EC50 in test [3] lay in the range of 101 to 500 nM.

`C=CC(=O)N[C@@H]1CCCC[C@H]1Nc1nc(N[C@H]2CCCN(C(=O)CO)C2)ncc1C(F)(F)F` [Compound I-32, N-((1R,2R)-2-((2-(((S)-1-(2-hydroxyacetyl)piperidin-3-yl)amino)-5-(trifluoromethyl)pyrimidin-4-yl)amino)cyclohexyl)acrylamide]: the “ERK1 Mass Mod (%)” value in test [1] is given as “F (a mass modification of 31-69%)”. Further, the half-inhibitory concentration (IC50) in test [2] lay in the range of 101 to 500 nM. Besides, in test [3], the EC50 is above 1000 nM.

In the case of `CC(=O)N1CCC[C@H](Nc2ncc(C(F)(F)F)c(Nc3ccccc3NC(=O)CCCl)n2)C1` [Compound I-21, (S)—N-(2-((2-((1-Acetylpiperidin-3-yl)amino)-5-(trifluoromethyl)pyrimidin-4-yl)amino)phenyl)-3-chloropropanamide], the “ERK1 Mass Mod (%)” value in test [1] is on record as “G (a mass modification ≦30%)”. The IC50 in test [2] lay within 101 to 500 nM. The EC50 in test [3] was above 1000 nM.

In the case of `C=CC(=O)Nc1ccccc1Nc1nc(Nc2cc(C(=O)NOCCO)ccc2C)ncc1C(F)(F)F` [Compound I-73, 3-((4-((2-Acrylamidophenyl)amino)-5-(trifluoromethyl)pyrimidin-2-yl)amino)-N-(2-hydroxyethoxy)-4-methylbenzamide], the “ERK1 Mass Mod (%)” value in test [1] was “E (a mass modification of ≧70%)”. Further, the IC50 in test [2] lay within 101 to 500 nM. In addition, the EC50 in test [3] is 101 to 500 nM. In test [4], the GI50 (as a rule, the concentration that inhibits growth by half) lay within 101 to 500 nM.

For `C=C(C)S(=O)(=O)Nc1cc(C)ccc1Nc1nc(Nc2cc(C(C)=O)ccc2C)ncc1C(F)(F)F` [Compound I-98, N-(2-((2-((5-acetyl-2-methylphenyl)amino)-5-(trifluoromethyl)pyrimidin-4-yl)amino)-5-methylphenyl)prop-1-ene-2-sulfonamide], the “ERK1 Mass Mod (%)” value in test [1] is “G (a mass modification ≦30%)”. Also, in test [2], the IC50 lay in the range of 101 to 500 nM. Moreover, the EC50 in test [3] was above 1000 nM.

With `C=C(C)S(=O)(=O)Nc1cc(F)ccc1Nc1nc(Nc2cc(C(C)=O)ccc2C)ncc1Cl` [Compound I-243, N-(2-((2-((5-acetyl-2-methylphenyl)amino)-5-chloropyrimidin-4-yl)amino)-5-fluorophenyl)prop-1-ene-2-sulfonamide], the “ERK1 Mass Mod (%)” value in test [1] is “G (a mass modification ≦30%)”. Moreover, the IC50 in test [2] is above 1000 nM. The EC50 in test [3] was above 1000 nM.

For `C=CC(=O)Nc1ccccc1Nc1nc(N[C@@H]2CCC[C@H](C(N)=O)C2)ncc1C(F)(F)F` [Compound I-7, (1S,3R)-3-((4-((2-acrylamidophenyl)amino)-5-(trifluoromethyl)pyrimidin-2-yl)amino)cyclohexanecarboxamide], the “ERK1 Mass Mod (%)” value in test [1] is given as “E (a mass modification of ≧70%)”. In addition, in test [3], the EC50 lay within 501 to 999 nM. This compound had a GI50 in test [4] of 501 to 999 nM.

As for `C=CC(=O)Nc1cc(OC)ccc1Nc1nc(Nc2ccc(N3CCC[C@@H]3C(N)=O)cc2C#N)ncc1Cl` [Compound I-180, (R)-1-(4-((4-((2-acrylamido-4-methoxyphenyl)amino)-5-chloropyrimidin-2-yl)amino)-3-cyanophenyl)pyrrolidine-2-carboxamide], the “ERK1 Mass Mod (%)” value in test [1] is reported as “E (a mass modification of ≧70%)”. Moreover, the IC50 in test [2] was in the range of 501 to 999 nM. Also, the EC50 in test [3] lay in the range of 501 to 999 nM. In test [4], this compound had a GI50 above 1000 nM.

Turning to `C=CC(=O)Nc1cc(OC)ccc1Nc1nc(Nc2ccc(N3CCC[C@H]3C(N)=O)cc2C#N)ncc1Cl` [Compound I-178, (S)-1-(4-((4-((2-acrylamido-4-methoxyphenyl)amino)-5-chloropyrimidin-2-yl)amino)-3-cyanophenyl)pyrrolidine-2-carboxamide], the “ERK1 Mass Mod (%)” value in test [1] is reported as “E (a mass modification of ≧70%)”. The IC50 in test [2] fell in the range of 101 to 500 nM.

Consider `C=CC(=O)Nc1cc(OC)ccc1Oc1nc(Nc2ccc(N3CCC[C@@H]3CO)cc2OC)ncc1C(N)=O` [Compound I-264, (R)-4-(2-acrylamido-4-methoxyphenoxy)-2-((4-(2-(hydroxymethyl)pyrrolidin-1-yl)-2-methoxyphenyl)amino)pyrimidine-5-carboxamide], for which the “ERK1 Mass Mod (%)” value in test [1] is given as “F (a mass modification of 31-69%)”. Moreover, in test [2], the IC50 was above 1000 nM.

In the case of `C=CC(=O)Nc1ccccc1Nc1nc(N[C@H]2CCCN(C(=O)CCCC(=O)NCCCOCCOCCOCCCNC(=O)CCCC[C@@H]3SC[C@@H]4NC(=O)N[C@@H]43)C2)ncc1Cl` [Compound I-303, 5-((S)-3-((4-((2-acrylamidophenyl)amino)-5-chloropyrimidin-2-yl)amino)piperidin-1-yl)-5-oxo-N-(15-oxo-19-((3aS,4S,6aR)-2-oxohexahydro-1H-thieno[3,4-d]imidazol-4-yl)-4,7,10-trioxa-14-azanonadecyl)pentanamide], the “ERK1 Mass Mod (%)” value in test [1] is recorded as “G (a mass modification ≦30%)”. Further, the EC50 in test [3] was above 1000 nM. The compound further had a GI50 in test [4] above 1000 nM.

Turning to `C=CC(=O)Nc1cc(F)ccc1Nc1nc(N[C@H]2CC[C@@H](F)CC2)ncc1C(F)(F)F` [Compound I-8, N-(5-fluoro-2-((2-((cis-4-fluorocyclohexyl)amino)-5-(trifluoromethyl)pyrimidin-4-yl)amino)phenyl)acrylamide], in test [1], the “ERK1 Mass Mod (%)” value is reported as “E (a mass modification of ≧70%)”. In addition, in test [2], the IC50 was in the range of 101 to 500 nM.

Consider `C/C=C/C(=O)Nc1cc(F)ccc1Nc1nc(N[C@@H]2CCC[C@H](C(N)=O)C2)ncc1Cl` (racemic) [Compound I-113, Rac-cis-(E)-3-((4-((2-(but-2-enamido)-4-fluorophenyl)amino)-5-chloropyrimidin-2-yl)amino)cyclohexanecarboxamide], for which the “ERK1 Mass Mod (%)” value in test [1] is given as “F (key: E: a mass modification of ≧70%; F: a mass modification of 31-69%; G: a mass modification ≦30%)”. For the same compound, the IC50 in test [2] is above 1000 nM. For the same compound, the EC50 in test [3] is above 1000 nM.

Take `C=CC(=O)Nc1ccccc1Nc1nc(Nc2cc(C(N)=O)ccc2C(F)(F)F)ncc1Cl` [Compound I-220, 3-((4-((2-acrylamidophenyl)amino)-5-chloropyrimidin-2-yl)amino)-4-(trifluoromethyl)benzamide]: the “ERK1 Mass Mod (%)” value in test [1] is “E (a mass modification of ≧70%)”. Besides, the IC50 in test [2] was 101 to 500 nM. Also, in test [3], the EC50 lay in the range of 501 to 999 nM.

As for `C=CC(=O)Nc1ccccc1Nc1nc(N[C@H]2CCC[C@@H](CO)C2)ncc1Cl` (racemic) [Compound I-121, Rac-cis-N-(2-((5-chloro-2-((3-(hydroxymethyl)cyclohexyl)amino)pyrimidin-4-yl)amino)phenyl)acrylamide], the “ERK1 Mass Mod (%)” value in test [1] is “E (key: E: a mass modification of ≧70%; F: a mass modification of 31-69%; G: a mass modification ≦30%)”. Besides, the IC50 in test [2] was below 100 nM. Moreover, in test [3], the EC50 is below 100 nM. This compound returned a GI50 in test [4] below 100 nM.

For the origin of these results see patent US9561228B2 (Celgene Avilomics Research, Inc., priority 2013, dated 2017).
